From patent publication US20100113272A1, “HERBICIDAL COMPOSITION AND METHOD OF USE THEREOF” (SYNGENTA CORP PROTECTION, INC., priority 2006, published 2010)

Assays:
[1] = tested on: large crabgrass (Digitaria sanguinalis); experiment: Glasshouse trial, control of large crabgrass, mesotrione and prodiamine spray applied post-emergence; format: in vivo; conditions: for control of large crabgrass on its own: spray post-emergence, 14 DAT
Experimental: A glasshouse trial was carried out. Large crabgrass seeds were sown into standard glasshouse potting mix (1:1 v/v Promix:Vero sand soil) contained in 10 cm square plastic pots. Treatments were replicated three times. Mesotrione (in the form Callisto® 480SE) was applied post-emergence to large crabgrass (Digitaria sanguinalis) at either 12 g ai/ha or 24 g ai/ha with or without prodiamine (in the form Barricade® 4FL). When used, prodiamine was applied at a rate of 210 g ai/ha or 420 g ai/ha. The adjuvant system was X-77 at 0.1% v/v in deionised water. 200 litres of herbicide/adjuvant system was used per hectare. General weed control was evaluated at 7 and 14 days after treatment (DAT). It is noted that all herbicides were applied at reduced field rates because herbicide effects are magnified in a glasshouse environment. Rates were chosen to give a 50 to 70% level of control with herbicides applied alone as this allows for detection of any synergistic effect when tank mixtures are used.
The results were evaluated using the Colby formula. The expected result for (A+B) is (A+B)−(A×B/100) where A and B are the ‘observed’ results for A and B on their own.

large crabgrass = experiment: Glasshouse trial, control of large crabgrass, mesotrione and prodiamine spray applied pre-emergence; format: in vivo, Digitaria sanguinalis; conditions: for control of large crabgrass on its own: spray pre-emergence, 7 DAT
Experimental: A glasshouse trial was carried out. Large crabgrass seeds were sown into standard glasshouse potting mix (1:1 v/v Promix:Vero sand soil) contained in 10 cm square plastic pots. Treatments were replicated three times. Mesotrione (in the form Callisto® 480SE) was applied pre-emergence to large crabgrass at either 12 g ai/ha or 24 g ai/ha with or without prodiamine (in the form Barricade® 4FL). When used, prodiamine was applied at a rate of 53 g ai/ha or 105 g ai/ha. The adjuvant system was X-77 at 0.1% v/v in deionised water. 200 litres of herbicide/adjuvant system was used per hectare. General weed control was evaluated at 7 and 14 days after treatment (DAT).
It is noted that control of large crabgrass with mesotrione alone applied pre-emergence at the higher rate (24 g ai/ha) was high; thus it was not possible to detect synergy when mesotrione was mixed with prodiamine. […] The results were evaluated using the Colby formula. The expected result for (A+B) is (A+B)−(A×B/100) where A and B are the ‘observed’ results for A and B on their own.

SMILES | control of large crabgrass on its own ([1]; mesotrione alone at the higher rate (24 g ai/ha)) [%] | control of large crabgrass on its own ([1]; mesotrione alone at the lower rate (12 g ai/ha)) [%] | control of large crabgrass with mesotrione alone ([1]; post-emergence, 7 DAT) | control of large crabgrass on its own (large crabgrass; mesotrione alone, 12 g ai/ha) [%] | control of large crabgrass with mesotrione alone (large crabgrass; pre-emergence at the higher rate (24 g ai/ha)) | control of large crabgrass on its own ([1]; prodiamine alone, 210 or 420 g ai/ha) | control of large crabgrass on its own (large crabgrass; prodiamine alone, 105 g ai/ha) [%]
CS(=O)(=O)c1ccc(C(=O)C2C(=O)CCCC2=O)c([N+](=O)[O-])c1 [Mesotrione, 2-(2′-nitro-4′-methylsulphonylbenzoyl)-1,3-cyclohexanedione] | 66.7 | 46.7 | relatively high | 50 | high |  | 
CCCN(CCC)c1c([N+](=O)[O-])cc(C(F)(F)F)c(N)c1[N+](=O)[O-] [Prodiamine, N^3,N^3-di-n-propyl-2,4-dinitro-6-(trifluoromethyl)-m-phenylenediamine] |  |  |  |  |  | no control | 76
